The results in this text go back to patent US20050043264A1, “Methods of inhibiting neurodegenerative disease” (priority 2003, published 2005).

“Also recorded” adds a separate entry of the source. Counter-ions that a name gives are not always drawn.

The test system of one experiment is Dp35. In words: Dp35 cleavage in HA-tagged Dp35 transfected BG2-c2 cells (anti-HA immunoblot). The note with it: BG2-c2 cells with HA-tagged Dp35, A23187 with 5 μM CaCl2, 24 hours. The experiment is classed as cell-based, Drosophila melanogaster. The text has this: Like Abl, p35 is conserved in Drosophila and functions to modulate Cdk5 activity during neurite outgrowth (Connell-Crowley et al., 2000, Curr. Biol. 10:599). In the AD brain, mammalian p35 is cleaved into p25 by calpain to deregulate Cdk5 (Lee et al., 2000, Nature 405:360). Although a putative calpain is also present in Drosophila (Jekely and Friedrich, 1999, J. Biol. Chem. 274:23893), the consensus calpain cleavage site is absent in Drosophila p35 (Dp35) (FIG. 5A). Therefore, it was unclear whether Dp35 would be converted into p25 upon Aβ42 stimulation. To investigate this possibility, carboxyl-terminal HA-tagged Dp35 was transfected into BG2-c2 cells before treating them with Aβ42or A23187/Ca^2+ (calcium ionophore). […] To analyze the Dp35 cleavage in vivo, transgenic flies co-expressing Dp35 and Aβ42 in the developing eyes were generated using a gmr-GAL4 driver. Consistent with the in vitro result, no visible cleavage or reduction of the Dp35 protein in the Aβ42 transgenic flies were observed (FIG. 5B, right panel).
(In general: Immunoblotting shows a protein as a band on a membrane.)

The test system of experiment [1] is Cdk5. In words: Cdk5 kinase activity in Aβ42-treated IMR-32 cells (histone H1 kinase assay). The note with it: Aβ42 (20 μM) 24 hours, STI571 pretreatment 24 hours. The experiment is classed as cell-based, human. As to the method: (§1) A kinase assay was performed by washing immunoprecipitates three times with kinase reaction buffer (50 mM HEPES [pH 7.0], 10 mM MgCl2, and 1 mM DTT). The beads with target proteins were incubated with kinase reaction buffer containing 2 μg of substrate (histone H1)(Calbiochem, San Diego, Calif.) and 10 μCi of ^33Pγ-ATP in a final volume of 40 μl at 30° C. for 30 minutes.
(§2) To determine if the role of Abl in Drosophila neurodegeneration is conserved in mammals, Abl kinase activity in Aβ42-induced mammalian neuronal apoptosis was investigated. […] Formation of p25 has been considered a causative agent that contributes to the deregulation of Cdk5 in human AD (Lee et al., 2000, Nature 405:360; Patrick et al., 1999, Nature 402:615). […] Thus, it was important to determine whether the conversion of p35 into p25 is sufficient to deregulate Cdk5 activity while Abl activation is inhibited. […] The cells were then assayed for Cdk5 kinase activity and Y-15 phosphorylation.

The subject of experiment [2] is Cdk5-pY15. In words: Cdk5-pY15 in Aβ42-treated IMR-32 cells (immunoblot). The experiment is classed as cell-based, human. The note with it: Aβ42 (20 μM) 24 hours, STI571 pretreatment 24 hours. How it is done:
(§3) Cell lysate was produced in lysis buffer or extract buffer (Juang and Hoffmann,1999, Oncogene 18:5138) for Cdk5 immunoprecipitation. Proteins were analyzed by direct Western blotting (30 μg/lane) or blotting after immunoprecipitation (1˜2 mg/immunoprecipitation). Immunoprecipitates were collected by binding to protein G PLUS/Protein A-Agarose (Oncogene Research Products, Nottingham UK). The antibodies used are listed below: anti-Cdk5 antibody (clone DC17), (Upstate, Charlottesville, Va.); sc-750, (Santa Cruz Biotechnology, Inc., Santa Cruz Calif.), anti-Cdk5-pY15 antibody (sc-1 2919),(Santa Cruz Biotechnology, Inc., Santa Cruz C), anti-HA antibody (BAbCO, Berkely, Calif.), anti-p35 antibody (sc-820), (Santa Cruz Biotechnology, Inc., Santa Cruz Calif.), and affinity-purified Ena polyclonal antibody (generated by Dr. F. M. Hoffmann' Lab) (McArdle Laboratory for Cancer Research and Laboratory of Genetics, University of Wisconsin-Madison) ECL detection reagent (NEN, Boston, Mass.) was used to detect the immunoreactive proteins.
(§4) To determine if the role of Abl in Drosophila neurodegeneration is conserved in mammals, Abl kinase activity in Aβ42-induced mammalian neuronal apoptosis was investigated. […] Formation of p25 has been considered a causative agent that contributes to the deregulation of Cdk5 in human AD (Lee et al., 2000, Nature 405:360; Patrick et al., 1999, Nature 402:615). […]

A further experiment concerns p35. In words: Cleavage of p35 into p25 in Aβ42-treated IMR-32 cells (immunoblot). The experiment is classed as cell-based, human. The note with it: Aβ42 (20 μM) 24 hours, STI571 pretreatment 24 hours. As to the method:
as §3, §4

Experiment [3] has as its system Cdk5-pY15. In words: Cdk5-Y15 phosphorylation (Cdk5-pY15) immunoblot, BG2-c2 cells. The experiment is classed as cell-based, Drosophila melanogaster. The note with it: Aβ42 (2 μM)-treated BG2-c2 cells; STI571 20 μM 60 minutes; dsRNA 20 μg/2×10^6 cells two days before Aβ42. As to the method: To understand the role of Drosophila Cdk5 in neurodegeneration, the phosphorylation of Cdk5-Y15 was investigated to determine if it was correlated with the pathological activation of Cdk5 in neuronal cells. Cdk5-Y15 phosphorylation (Cdk5-pY15) levels in BG2-c2 cells were examined over time following treatment with 2 μM Aβ42. The presence of […] in the immunoprecipitates was shown by immunoblotting with an anti-phospho antibody specific for Cdk5-pY15. Within 60 minutes, Aβ42 caused an elevation of Cdk5-pY15, which was coincident with an increase in Cdk5 kinase activity (FIG. 4A). […] Moreover, dsRNA-abl (20 μg/2×10^6 cells) was transfected into BG2-c2 cells to reduce Abl expression two days before Aβ42 treatment.

In another experiment the test system is BG2-c2 neuronal cells. In words: Cdk5 subcellular translocalization by immunostaining and confocal microscopy. The experiment is classed as cell-based, Drosophila melanogaster. The settings on record: 2 μM Aβ42 one hour, agent given simultaneously with or before Aβ42 (BL-1 5 μM).
Another experiment has as its system IMR-32 cells. In words: Neuronal viability, Aβ42-induced IMR-32 neuronal death. The experiment is classed as cell-based, human. The note with it: IMR-32 cells pretreated 24 hours with STI571, then Aβ42 24 or 72 hours. How it is done:
(§5) The modified MTT assay (Sigma, St Louis, Mo.) was used to quantify neuronal cell viability (Lee et al., 2000, Nature 405:360). The intensities were measured using an optical density reader (SpectroMAXplus, Molecular Devices, Sunnyvale, Calif.) at 570 nm (background: 630 nm) and proportionally represented the viable cell numbers.
as §2

The next experiment concerns BG2-c2 cells. In words: Modified MTT cell viability assay, Aβ42-induced neuronal death. The experiment is classed as cell-based, Drosophila melanogaster. The settings on record: BG2-c2 cells treated with Aβ42; dsRNA transfected two days before Aβ42 for 24 hours. As to the method: as §5
For orientation: Tetrazolium assays rely on reduction of a dye to a coloured formazan, in cell work by metabolically active cells.

For experiment [4], the system named is Cdk5. In words: In vitro Cdk5 kinase assay of immunoprecipitates with histone H1 as substrate, BG2-c2 cells. The experiment is classed as cell-based, Drosophila melanogaster. The note with it: for Abl kinase activity regulation, used to confirm Abl requirement for modulation of Cdk5 kinase: BG2-c2 cells, other Abl kinase regulating agents. As to the method:
as §1
Whether Cdk5 was activated in the Abl-Cdk5 complex was also investigated. Cdk5 was immunoprecipitated from the cell lysate for an vitro kinase assay, using histone H1 as a substrate (Connell-Crowley et al., 2000, Curr. Biol. 10:599). Similar to results reported for mammalian cells (Alvarez et al., 2001, Exp. Cell Res. 264:266), Drosophila Cdk5 kinase activity was elevated following Aβ42 treatment as compared to controls (FIG. 2B, bottom panel). […] Moreover, other Abl kinase regulating agents including doxorubicin (DX) and erbstatin analog (EA) were used to activate or suppress Abl kinase activity, respectively, and confirmed that Abl kinase activity was required for modulation of Cdk5 kinase.

As for `CNc1ccc2oc(C[C@H]3O[C@@]4(CC[C@H]3C)O[C@H]([C@H](C)C(=O)c3ccc[nH]3)[C@H](C)C[C@H]4C)nc2c1C(=O)O` [A23187], in the experiment with Dp35, the “Dp35 cleavage / Dp35 protein levels” value is reported as “no noticeable cleavage or reduction; also recorded: no detectable cleavage or reduction”.
As to `CCCC[C@@H](C=O)NC(=O)[C@H](CC(C)C)NC(=O)OCc1ccccc1` [Calpeptin], the Cdk5 kinase activity result in the experiment on Cdk5 [1] is “considerably reduced”. The “Cdk5-pY15 (Y15 phosphorylation)” value with Cdk5-pY15 [2] is on record as “did not diminish”. Besides, the “Cleavage of p35 into p25 (formation of p25)” value with p35 is on record as “blockade of p35 cleavage”.
`Cc1ccc(NC(=O)c2ccc(CN3CCN(C)CC3)cc2)cc1Nc1nccc(-c2cccnc2)n1` [STI571, imatinib mesylate]: the “Cdk5-pY15 (Cdk5-Y15 phosphorylation)” value in the experiment on Cdk5-pY15 [3] is given as “diminished; also recorded: reduced”. Besides, the Cdk5 kinase activity result in the experiment with Cdk5 [1] is on record as “abolished; also recorded: suppressed”. For the same compound, the “Aβ42-stimulated Cdk5 translocalization to the perinuclear cytoplasm” value in the experiment with BG2-c2 neuronal cells is “markedly suppressed; also recorded: no Abl or Cdk5 protein translocalization to perinuclear region”. In addition, the “Aβ42-induced IMR-32 neuronal death (neuronal viability)” value in the experiment with IMR-32 cells is on record as “rescued the neuronal death; also recorded: effectively suppressed”. Besides, in the experiment with Cdk5-pY15 [2], the “Cdk5-pY15 (Y15 phosphorylation)” value is listed as “abolished; also recorded: suppressed”. Besides, in the experiment with BG2-c2 cells, the “Aβ42-induced neuronal death (neuronal viability, MTT)” value is listed as “rescued Aβ42-induced neuronal death; also recorded: suppressed”. In addition, in the experiment on Cdk5 [4] (Aβ42 (2 μM)-treated BG2-c2 cells, STI571 20 μM 60 minutes, dsRNA 20 μg/2×10^6 cells two days before Aβ42), the “Cdk5 kinase activity (histone H1 phosphorylation)” value is given as “sharply diminished; also recorded: reduced”.
`COc1cccc2c1C(=O)c1c(O)c3c(c(O)c1C2=O)C[C@@](O)(C(=O)CO)C[C@@H]3O[C@H]1C[C@H](N)[C@H](O)[C@H](C)O1` [doxorubicin]: the “Abl kinase activity regulation, used to confirm Abl requirement for modulation of Cdk5 kinase” value in the experiment on Cdk5 [4] is on record as “activate”.
Take `COC(=O)C=Cc1cc(O)ccc1O` [erbstatin analog, 2,5-dihydroxymethylcinnamate]: the “Abl kinase activity regulation, used to confirm Abl requirement for modulation of Cdk5 kinase” value in the experiment on Cdk5 [4] is “suppress”.
